Test systems include SF-268 CNS; K-562 leukemia; EKVX NSCLC; OVCAR-4 ovarian; SK-MEL-28 melanoma; MOLT-4 leukemia; HL-60(TB) leukemia; T-47D breast; A498 renal; NCI-H522 lung.
Assay in all cases: NCI-60 cell line screen, 48 h

Molecules are shown by their SMILES. Where “and” joins values, the source holds several entries; their conditions need not be identical. Identical values can stand only once.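 Grown in 96-well plates, cells were treated for 48 hours with each compound at five concentrations. Insufficient inhibition: endpoint recorded as highest concentration tested. GI50 is the concentration that inhibits growth by half. TGI: concentration producing complete growth inhibition.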

As for `COC(=O)NC1C(C)OC(OC2C/C=C(/C)C3C=CC4C(OC5CC(OC6CCC(OC7CC(O)C(OC8CCC(O)C(C)O8)C(C)O7)C(C)O6)C(OC(C)=O)C(C)O5)C(C)CC(C)C4C3(C)/C(O)=C3/C(=O)OC4(CC(C=O)=CC(O)C4/C=C\2C)C3=O)CC1(C)[N+](=O)[O-]` (stereo not drawn), the GI50 in the assay on SF-268 CNS is 0.105 µM; with K-562 leukemia, 0.218 µM; in the assay on EKVX NSCLC, 0.367 µM; with OVCAR-4 ovarian, 1.56 µM; with SK-MEL-28 melanoma, 0.0311 µM; with MOLT-4 leukemia, 0.131 µM. Also, the GI50 in the assay with HL-60(TB) leukemia is 0.354 µM; with A498 renal it was 0.199 µM; with NCI-H522 lung, 0.222 µM. The TGI is 11.2 µM and 9.73 µM with SF-268 CNS; 11 µM and 12.1 µM with K-562 leukemia; 5.49 µM and 0.864 µM with EKVX NSCLC; 7.26 µM and 4.66 µM in the assay on OVCAR-4 ovarian; 4.78 µM and 0.634 µM in the assay on MOLT-4 leukemia; 4.43 µM and 2.53 µM in the assay on HL-60(TB) leukemia. Also, the TGI is 10.2 µM with T-47D breast; 1.65 µM and 0.508 µM in the assay with A498 renal; 2.8 µM and 0.645 µM in the assay on NCI-H522 lung.
On to `CC1CC2C3CCC4=CC(=O)C=CC4(C)C3(F)C(O)CC2(C)C1(O)C(=O)COP(=O)(O)O` (stereo not drawn), for which the GI50 in the assay on SF-268 CNS, in the assay with K-562 leukemia, with EKVX NSCLC, in the assay on OVCAR-4 ovarian, in the assay on SK-MEL-28 melanoma and in the assay with MOLT-4 leukemia was above 500 µM each time. Also, the GI50 with HL-60(TB) leukemia, in the assay with T-47D breast, in the assay with A498 renal and in the assay on NCI-H522 lung was above 500 µM throughout. Besides, the TGI in the assay with SF-268 CNS, in the assay with K-562 leukemia, with EKVX NSCLC, in the assay with OVCAR-4 ovarian, in the assay on SK-MEL-28 melanoma and with MOLT-4 leukemia was above 500 µM in each case. The TGI in the assay with HL-60(TB) leukemia, in the assay on T-47D breast, in the assay on A498 renal and in the assay on NCI-H522 lung was above 500 µM each time.
With `NS(=O)(=O)c1ccc(Nc2cc(-c3ccc(O)c(F)c3)[nH]n2)cc1`, the GI50 is 10.3 µM in the assay with SF-268 CNS; above 25 µM in the assay on K-562 leukemia; above 25 µM in the assay on EKVX NSCLC; 8.8 µM in the assay with OVCAR-4 ovarian; above 25 µM with SK-MEL-28 melanoma; above 25 µM with MOLT-4 leukemia. For the same compound, the GI50 in the assay on HL-60(TB) leukemia was above 25 µM; in the assay with T-47D breast, above 16.6 µM; with A498 renal, above 25 µM; in the assay on NCI-H522 lung, 13.9 µM. For the same compound, the TGI in the assay on SF-268 CNS, in the assay with K-562 leukemia, in the assay on EKVX NSCLC, in the assay on OVCAR-4 ovarian, with SK-MEL-28 melanoma and with MOLT-4 leukemia was above 25 µM each time. Also, the TGI in the assay with HL-60(TB) leukemia, in the assay with T-47D breast, in the assay with A498 renal and in the assay with NCI-H522 lung was above 25 µM in each case.
For `COc1ccc2c(c1)OC(N)=C(C#N)C2c1cc(OC)c(OC)c(OC)c1` (stereo not drawn), the GI50 is 0.0642 µM with SF-268 CNS; 0.0338 µM in the assay with K-562 leukemia; 0.251 µM in the assay with EKVX NSCLC; 0.0714 µM in the assay on OVCAR-4 ovarian; 0.0781 µM in the assay on SK-MEL-28 melanoma; 0.0365 µM with MOLT-4 leukemia. The GI50 in the assay with HL-60(TB) leukemia is 0.0256 µM; with T-47D breast, above 100 µM; in the assay on A498 renal, 0.0222 µM; with NCI-H522 lung it was 0.0194 µM. Further, the TGI with SF-268 CNS, with K-562 leukemia, in the assay on EKVX NSCLC, in the assay with OVCAR-4 ovarian, with SK-MEL-28 melanoma and with MOLT-4 leukemia was above 100 µM throughout. Besides, the TGI in the assay with HL-60(TB) leukemia was 0.068 µM; with T-47D breast, above 100 µM; in the assay with A498 renal it was 0.148 µM; in the assay with NCI-H522 lung it was 0.0631 µM.
With `CCCn1c2c(c3ccccc3c1=O)C(=O)c1ccccc1-2`, the TGI in the assay with SF-268 CNS, with K-562 leukemia, in the assay with EKVX NSCLC, in the assay with OVCAR-4 ovarian, with SK-MEL-28 melanoma and in the assay with MOLT-4 leukemia was above 100 µM each time. Further, the TGI with HL-60(TB) leukemia was 7.25 µM; with T-47D breast, above 100 µM; in the assay with A498 renal, above 100 µM; in the assay with NCI-H522 lung, 39.6 µM.
Consider `C=C1C(=O)O[C@H]2[C@H]1CC/C(COC(=O)c1cc(OC)c(OC)c(OC)c1)=C\CC[C@@]1(C)O[C@@H]21`, for which the GI50 in the assay with SF-268 CNS was 1.46 µM; with K-562 leukemia, 0.388 µM; in the assay with EKVX NSCLC, 1.78 µM; with OVCAR-4 ovarian, 2.09 µM; with SK-MEL-28 melanoma, 1.59 µM; in the assay on MOLT-4 leukemia it was 1.64 µM. For the same compound, the GI50 was 0.711 µM in the assay on HL-60(TB) leukemia, 0.931 µM in the assay on T-47D breast, 2.57 µM in the assay on A498 renal and 0.589 µM with NCI-H522 lung. For the same compound, the TGI worked out at 3.42 µM in the assay with SF-268 CNS; 11.5 µM with K-562 leukemia; 4.5 µM in the assay on EKVX NSCLC; 6.11 µM with OVCAR-4 ovarian; 3.37 µM in the assay on SK-MEL-28 melanoma; 5.55 µM with MOLT-4 leukemia. Moreover, the TGI in the assay on HL-60(TB) leukemia was 2.95 µM; with T-47D breast it was 3.54 µM; in the assay on A498 renal, 8.56 µM; in the assay with NCI-H522 lung it was 2.25 µM.
For the compound `CN1CCN(CC(=O)N(C)c2ccc(N=C(c3ccccc3)c3c(O)[nH]c4ccc(C#N)cc34)cc2)CC1`, the GI50 in the assay on SF-268 CNS is 2.62 µM; in the assay on K-562 leukemia, 0.575 µM; in the assay with EKVX NSCLC it was 5.27 µM; in the assay on OVCAR-4 ovarian, 3.03 µM; in the assay on SK-MEL-28 melanoma it was 2.21 µM; in the assay with MOLT-4 leukemia, 0.601 µM. Also, the GI50 was 1.18 µM in the assay on HL-60(TB) leukemia, 14.2 µM with T-47D breast, 0.176 µM in the assay on A498 renal and 5.29 µM with NCI-H522 lung. Moreover, the TGI in the assay on SF-268 CNS came to 14.6 µM; with K-562 leukemia, 11.6 µM; with EKVX NSCLC, 19.7 µM; in the assay with OVCAR-4 ovarian it was 14 µM; with SK-MEL-28 melanoma it was 4.62 µM; with MOLT-4 leukemia, 9.38 µM. For the same compound, the TGI was 6.36 µM in the assay with HL-60(TB) leukemia, 41.1 µM with T-47D breast, 2.46 µM in the assay on A498 renal and 22.4 µM in the assay on NCI-H522 lung.
As for `COc1ccc(C(O)c2cc3c(N)c(C(=O)Nc4ccc(Cl)cc4)sc3nc2C)cc1` (stereo not drawn), the GI50 is 3.96 µM in the assay on SF-268 CNS; 0.694 µM in the assay with K-562 leukemia; 3.88 µM in the assay with EKVX NSCLC; 2.42 µM in the assay on OVCAR-4 ovarian; 6.49 µM in the assay with SK-MEL-28 melanoma; 3.09 µM in the assay with MOLT-4 leukemia. The GI50 with HL-60(TB) leukemia is 1.91 µM; in the assay with T-47D breast it was 3.29 µM; in the assay on A498 renal, 3 µM; with NCI-H522 lung, 4.05 µM. Also, the TGI in the assay on SF-268 CNS was 19.6 µM; in the assay with K-562 leukemia, above 100 µM; in the assay with EKVX NSCLC, 30.7 µM; with OVCAR-4 ovarian, 7.47 µM; in the assay with SK-MEL-28 melanoma, 57.7 µM; in the assay with MOLT-4 leukemia it was above 100 µM. Besides, the TGI in the assay with HL-60(TB) leukemia was determined as 9.63 µM; with T-47D breast, 50.5 µM; in the assay on A498 renal, 12.4 µM; with NCI-H522 lung, 38.1 µM.

(Values after PubChem BioAssay (NCI).)
